{"source": "patent US11684589B2", "about": "“Pharmaceutical compositions for use in the therapy of blepharitis” (NOVALIQ GMBH, priority 2016, dated 2023)", "assay_type_in_all_cases": "in vivo, patients", "key": {"posterior blepharitis": {"system": "posterior blepharitis", "assay": "Assessment of posterior blepharitis severity in observational patient study", "details": "for Posterior blepharitis shift table, changes from baseline for both eyes: 7 weeks", "description": "(§1) A prospective, uncontrolled, open-label, multi-center observational study was conducted with a total of 72 (53 female, 19 male) patients included, with 1 to 20 patients per site. Two patients were lost for follow-up during the study. Patients to be included had to fulfill following criteria: • Males or females≥18 years of age; • Patients with symptoms as determined by • Tear Film Break-Up Time (TFBUT)≤10 s • Ocular Surface Disease Index≥16 and ≤55 • Schirmer I Test≥2 mm (recorded within 5 min) • Sum of peripheral corneal and conjunctival staining grade≤10 (Oxford) • Altered secretion and expressibility of the meibomian glands. Among those, patients fulfilling the following criteria were not included in the study: • Known hypersensitivity to any of the components of NovaTears®; • Contact lens wear, pregnancy, or breast feeding; • Presence of dry eye disease (DED) caused by any other known underlying systemic disease; • Planned ophthalmologic surgical procedure during the course of the study; • Use of lipid-containing or tear-film stabilizing eye drops/sprays except cyclosporin formulations. Patients selected as described above were administered 1-perfluorohexyloctane (F6H8) eye drops, manufactured under the tradename “NovaTears®” (Novaliq GmbH, Heidelberg, Germany) for a period of 7 weeks. Said formulation consists essentially of 1-perfluorohexyloctane (F6H8), it is water-free and contains no additional preservatives or ingredients. A dose of 3 to 4 droplets (corresponding to 40 μl, 10 μl per drop) per eye and day were administered topically to the eye, with 1 droplet being administered as a single dose. NovaTears® single droplets were administered directly to the surface of the eye into a pocket that was formed by gently pulling down the lower eyelid. Assessment of the eyes treated was performed once before the start of NovaTears® administration (baseline) and once after 7 weeks of treatment (follow-up). Anterior blepharitis involves inflammation of the lid margin anterior to the gray line and is usually concentrated around the eyelashes and follicles. Posterior blepharitis involves inflammation of the posterior lid margin. The severity of anterior and posterior blepharitis was rated separately for each eye by selecting one of the following ratings: “none”, “+”, “++”, “+++” (with “+++” indicating most severe blepharitis anterior or posterior)."}, "anterior blepharitis": {"system": "anterior blepharitis", "assay": "Assessment of anterior blepharitis severity in observational patient study", "details": "for Anterior blepharitis shift table, changes from baseline for both eyes: 7 weeks", "description": "as §1"}, "[1]": {"system": "abnormal lid margin features", "assay": "Lid margin assessment (abnormal lid margin features) in observational patient study", "description": "A prospective, uncontrolled, open-label, multi-center observational study was conducted with a total of 72 (53 female, 19 male) patients included, with 1 to 20 patients per site. Two patients were lost for follow-up during the study. Patients to be included had to fulfill following criteria: • Males or females≥18 years of age; • Patients with symptoms as determined by • Tear Film Break-Up Time (TFBUT)≤10 s • Ocular Surface Disease Index≥16 and ≤55 • Schirmer I Test≥2 mm (recorded within 5 min) • Sum of peripheral corneal and conjunctival staining grade≤10 (Oxford) • Altered secretion and expressibility of the meibomian glands.\nAmong those, patients fulfilling the following criteria were not included in the study: • Known hypersensitivity to any of the components of NovaTears®; • Contact lens wear, pregnancy, or breast feeding; • Presence of dry eye disease (DED) caused by any other known underlying systemic disease; • Planned ophthalmologic surgical procedure during the course of the study; • Use of lipid-containing or tear-film stabilizing eye drops/sprays except cyclosporin formulations.\nPatients selected as described above were administered 1-perfluorohexyloctane (F6H8) eye drops, manufactured under the tradename “NovaTears®” (Novaliq GmbH, Heidelberg, Germany) for a period of 7 weeks. Said formulation consists essentially of 1-perfluorohexyloctane (F6H8), it is water-free and contains no additional preservatives or ingredients. A dose of 3 to 4 droplets (corresponding to 40 μl, 10 μl per drop) per eye and day were administered topically to the eye, with 1 droplet being administered as a single dose. NovaTears® single droplets were administered directly to the surface of the eye into a pocket that was formed by gently pulling down the lower eyelid. Assessment of the eyes treated was performed once before the start of NovaTears® administration (baseline) and once after 7 weeks of treatment (follow-up).\nLid Margin Assessment As a further parameter abnormal lid margin features, such as teleangiectasia, plugging and lid swelling were assessed in the study. Assessment was performed for each eye separately."}, "[2]": {"details": "7 weeks of treatment, 3 to 4 droplets per eye and day, including patients with scores ++ and +"}}}
{"smiles": "CCCCCCCCC(F)(F)C(F)(F)C(F)(F)C(F)(F)C(F)(F)C(F)(F)F", "note": "[1-perfluorohexyloctane]", "values": [{"measurement": "Severity of posterior blepharitis after treatment", "setting": "posterior blepharitis; [2]", "value": "decreased for all patients"}, {"measurement": "Posterior blepharitis shift table, changes from baseline for both eyes", "setting": "posterior blepharitis; baseline 0 (none), follow-up 0 (none)", "value": 26, "unit": "eyes"}, {"measurement": "Posterior blepharitis shift table, changes from baseline for both eyes", "setting": "posterior blepharitis; baseline 0 (none), follow-up +++", "value": 0, "unit": "eyes"}, {"measurement": "Posterior blepharitis shift table, changes from baseline for both eyes", "setting": "posterior blepharitis; baseline 0 (none), follow-up ++", "value": 0, "unit": "eyes"}, {"measurement": "Posterior blepharitis shift table, changes from baseline for both eyes", "setting": "posterior blepharitis; baseline 0 (none), follow-up +", "value": 5, "unit": "eyes"}, {"measurement": "Posterior blepharitis shift table, changes from baseline for both eyes", "setting": "posterior blepharitis; baseline +++, follow-up 0 (none)", "value": 4, "unit": "eyes"}, {"measurement": "Posterior blepharitis shift table, changes from baseline for both eyes", "setting": "posterior blepharitis; baseline +++, follow-up +++", "value": 0, "unit": "eyes"}, {"measurement": "Posterior blepharitis shift table, changes from baseline for both eyes", "setting": "posterior blepharitis; baseline +++, follow-up ++", "value": 0, "unit": "eyes"}, {"measurement": "Posterior blepharitis shift table, changes from baseline for both eyes", "setting": "posterior blepharitis; baseline +++, follow-up +", "value": 2, "unit": "eyes"}, {"measurement": "Posterior blepharitis shift table, changes from baseline for both eyes", "setting": "posterior blepharitis; baseline ++, follow-up 0 (none)", "value": 10, "unit": "eyes"}, {"measurement": "Posterior blepharitis shift table, changes from baseline for both eyes", "setting": "posterior blepharitis; baseline ++, follow-up +++", "value": 0, "unit": "eyes"}, {"measurement": "Posterior blepharitis shift table, changes from baseline for both eyes", "setting": "posterior blepharitis; baseline ++, follow-up ++", "value": 8, "unit": "eyes"}, {"measurement": "Posterior blepharitis shift table, changes from baseline for both eyes", "setting": "posterior blepharitis; baseline ++, follow-up +", "value": 14, "unit": "eyes"}, {"measurement": "Posterior blepharitis shift table, changes from baseline for both eyes", "setting": "posterior blepharitis; baseline +, follow-up 0 (none)", "value": 20, "unit": "eyes"}, {"measurement": "Posterior blepharitis shift table, changes from baseline for both eyes", "setting": "posterior blepharitis; baseline +, follow-up +++", "value": 0, "unit": "eyes"}, {"measurement": "Posterior blepharitis shift table, changes from baseline for both eyes", "setting": "posterior blepharitis; baseline +, follow-up ++", "value": 3, "unit": "eyes"}, {"measurement": "Posterior blepharitis shift table, changes from baseline for both eyes", "setting": "posterior blepharitis; baseline +, follow-up +", "value": 30, "unit": "eyes"}, {"measurement": "Assessment of posterior blepharitis, grade +++", "setting": "posterior blepharitis; follow-up after 7 weeks of treatment, 122 eyes from 61 patients, baseline 6", "value": 0, "unit": "eyes"}, {"measurement": "Assessment of posterior blepharitis, grade none", "setting": "posterior blepharitis; follow-up after 7 weeks of treatment, 122 eyes from 61 patients, baseline 31", "value": 60, "unit": "eyes"}, {"measurement": "Assessment of posterior blepharitis, grade ++", "setting": "posterior blepharitis; follow-up after 7 weeks of treatment, 122 eyes from 61 patients, baseline 32", "value": 11, "unit": "eyes"}, {"measurement": "Assessment of posterior blepharitis, grade +", "setting": "posterior blepharitis; follow-up after 7 weeks of treatment, 122 eyes from 61 patients, baseline 53", "value": 51, "unit": "eyes"}, {"measurement": "Reduction in the severity of posterior blepharitis after treatment", "setting": "posterior blepharitis; patients with the most severe posterior blepharitis rated +++", "value": "most significant reduction"}, {"measurement": "Severity of anterior blepharitis after treatment", "setting": "anterior blepharitis; [2]", "value": "decreased for all patients"}, {"measurement": "Anterior blepharitis shift table, changes from baseline for both eyes", "setting": "anterior blepharitis; baseline +++, follow-up +++", "value": 0, "unit": "eyes"}, {"measurement": "Anterior blepharitis shift table, changes from baseline for both eyes", "setting": "anterior blepharitis; baseline +++, follow-up ++", "value": 0, "unit": "eyes"}, {"measurement": "Anterior blepharitis shift table, changes from baseline for both eyes", "setting": "anterior blepharitis; baseline +++, follow-up +", "value": 0, "unit": "eyes"}, {"measurement": "Anterior blepharitis shift table, changes from baseline for both eyes", "setting": "anterior blepharitis; baseline +++, follow-up none", "value": 0, "unit": "eyes"}, {"measurement": "Anterior blepharitis shift table, changes from baseline for both eyes", "setting": "anterior blepharitis; baseline ++, follow-up +++", "value": 0, "unit": "eyes"}, {"measurement": "Anterior blepharitis shift table, changes from baseline for both eyes", "setting": "anterior blepharitis; baseline ++, follow-up ++", "value": 4, "unit": "eyes"}, {"measurement": "Anterior blepharitis shift table, changes from baseline for both eyes", "setting": "anterior blepharitis; baseline ++, follow-up +", "value": 7, "unit": "eyes"}, {"measurement": "Anterior blepharitis shift table, changes from baseline for both eyes", "setting": "anterior blepharitis; baseline ++, follow-up none", "value": 4, "unit": "eyes"}, {"measurement": "Anterior blepharitis shift table, changes from baseline for both eyes", "setting": "anterior blepharitis; baseline +, follow-up +++", "value": 0, "unit": "eyes"}, {"measurement": "Anterior blepharitis shift table, changes from baseline for both eyes", "setting": "anterior blepharitis; baseline +, follow-up ++", "value": 1, "unit": "eyes"}, {"measurement": "Anterior blepharitis shift table, changes from baseline for both eyes", "setting": "anterior blepharitis; baseline +, follow-up +", "value": 20, "unit": "eyes"}, {"measurement": "Anterior blepharitis shift table, changes from baseline for both eyes", "setting": "anterior blepharitis; baseline +, follow-up none", "value": 38, "unit": "eyes"}, {"measurement": "Anterior blepharitis shift table, changes from baseline for both eyes", "setting": "anterior blepharitis; baseline none, follow-up +++", "value": 0, "unit": "eyes"}, {"measurement": "Anterior blepharitis shift table, changes from baseline for both eyes", "setting": "anterior blepharitis; baseline none, follow-up ++", "value": 2, "unit": "eyes"}, {"measurement": "Anterior blepharitis shift table, changes from baseline for both eyes", "setting": "anterior blepharitis; baseline none, follow-up +", "value": 15, "unit": "eyes"}, {"measurement": "Anterior blepharitis shift table, changes from baseline for both eyes", "setting": "anterior blepharitis; baseline none, follow-up none", "value": 31, "unit": "eyes"}, {"measurement": "Assessment of anterior blepharitis, grade +++", "setting": "anterior blepharitis; follow-up after 7 weeks of treatment, 122 eyes from 61 patients, baseline 0", "value": 0, "unit": "eyes"}, {"measurement": "Assessment of anterior blepharitis, grade ++", "setting": "anterior blepharitis; follow-up after 7 weeks of treatment, 122 eyes from 61 patients, baseline 15", "value": 7, "unit": "eyes"}, {"measurement": "Assessment of anterior blepharitis, grade none", "setting": "anterior blepharitis; follow-up after 7 weeks of treatment, 122 eyes from 61 patients, baseline 48", "value": 73, "unit": "eyes"}, {"measurement": "Assessment of anterior blepharitis, grade +", "setting": "anterior blepharitis; follow-up after 7 weeks of treatment, 122 eyes from 61 patients, baseline 59", "value": 42, "unit": "eyes"}, {"measurement": "Abnormal lid margin features (teleangiectasia, plugging, lid swelling) after treatment", "setting": "[1]; 7 weeks of treatment", "value": "significantly reduced"}, {"measurement": "Assessment of lid margin, Lid Swelling", "setting": "[1]; follow-up after 7 weeks of treatment, assessed for each eye separately, baseline 30", "value": 20}, {"measurement": "Assessment of lid margin, Teleangiectasia", "setting": "[1]; follow-up after 7 weeks of treatment, assessed for each eye separately, baseline 74", "value": 49}, {"measurement": "Assessment of lid margin, Plugging", "setting": "[1]; follow-up after 7 weeks of treatment, assessed for each eye separately, baseline 90", "value": 59}]}
